Values quoted from earlier work, collected in patent publication US8865699B2, “Amino triazoles as PI3K inhibitors” (Cellzome Ltd., priority 2007, dated 2014).

Key:
[1] = system: collagen II-antibody-induced arthritis; conditions: wildtype mice, oral
[2] = system: lymphocyte-dependent rheumatoid arthritis induced by direct collagen II injection; conditions: mouse, oral
[3] = system: MRL-lpr mouse model of systemic lupus erythematosus (SLE); conditions: intraperitoneal administration
[4] = system: animal model of myocardial infarction; conditions: dosing after myocardial reperfusion (up to 3 hours after)

Structure (SMILES)	clinical and histologic signs of arthritis [1]	joint inflammation and damage [2]	CD4+ T-cell populations [3]	glomerulonephritis [3]	life span [3]	edema and inflammation in response to multiple mediators [4]
O=C1NC(=O)/C(=C\c2ccc3nccnc3c2)S1 [AS-605240]	reduced clinical and histologic signs of collagen II-antibody-induced arthritis	decreased joint inflammation and damage	reduced CD4+ T-cell populations	reduced glomerulonephritis	prolonged life span	
Nc1nc(N)c2nc(-c3cccc(O)c3)c(-c3cccc(O)c3)nc2n1 [TG100-115]						potently inhibits edema and inflammation
